In patent publication US10274488B2, “Glycan arrays on PTFE-like aluminum coated glass slides and related methods” (Academia Sinica, priority 2008, dated 2019):

Tests used:
Format in all cases: biochemical, Clostridium thermocellum
[1] = test system: exoglucanase L3; assay: Enzymatic hydrolysis in solution with purified exoglucanase L3, MS-TOF assay; conditions: reaction in solution
Method: (§1) To verify, the exoglucanases (L3) and endoglucanase (44A) were prepared according methods well known in the literature with minor modifications. First, enzymatic hydrolysis reactions were conducted in solution with the purified enzymes using substrates 8, 9 and 10. At the completion of the reaction, the solution mixtures were transferred to the PTFE-like ACG slide, and prepared by using the same washing procedures before being subjected to MS-TOF assay.
(§2) For each carbohydrate, a specific enzyme was added: (a) is the control run without enzymes, (b) is exoglucanase L3, and (c) is endoglucanase 44A. […]
(§3) Cellulase was prepared (5 U/mL in 25 mM pH 5.05 NaOAc buffer solution). Substrate was also dissolved in NaOAc buffer solution (25 mM, pH 5.05) to give 0.5 mM substrate solution. Add 100 uL cellulase solution to 100 uL substrate solution in eppendorf to have a 2.5 U/mL cellulase solution with 0.25 mM substrate. This solution was incubated in 37° C. for 18 hours. Add 100 μL incubated solution onto the slide loaded in FAST® Frame. Put the slide in dry box to remove the water, and then use high vacuum to remove trace water. 100 μL water was used to rinse each well of the FAST® Frame multi-slide plate to solve and remove the salt of the buffer solution. Remove any residual water on the plate by high vacuum and then analyzed the slide by MALDI-TOF Ultra-Flex II.
(§4) The genomic DNA of Sulfolobus solfataricus (ATCC 35092) and Clostridium thermocellum (ATCC 27405) were obtained from the ATCC biological resource center. The Sso7d (NCBI accession number: AAK42090) gene fragment was amplified directly from the Sulfolobus solfataricus genome by polymerase chain reaction (PCR) with forward 5′ […] 3′ (SEQ ID NO: 1) and reverse 5′ […] 3′ (SEQ ID NO: 2) primers. The PCR product encoding Sso7d was digested with NdeI and BamHI and subsequently cloned into expression vector pET-28a (Novagen) to generate pET-28-Sso7d. […]

[2] = test system: exoglucanase L3; assay: Enzymatic hydrolysis on the PTFE-like ACG surface with exoglucanase L3, MS-TOF assay; conditions: substrate immobilized on the PTFE-like ACG surface, 24 hours of incubation
Method: as §2
(§5) For comparison and as illustrated according to implementations shown in FIG. 23, substrate 8, 9, and 10 were immobilized on the PTFE-like ACG surface and carried out the cellulase hydrolysis on the surface directly, after the same washing procedures, these slides were subjected to MS-TOF assay. […] The endoglucanase 44A can't accept compound 8 or 9 as a substrate. […] From the above results, the cellotetraose substrate 10 was the best carbohydrate to create array on the PTFE-like ACG surface for the experiments conducted. By using this array, the activity and specificity of unknown cellulase may be examined.
Cellulase was prepared (5 U/mL in 25 mM pH 5.05 NaOAc buffer solution). Substrate was also dissolved in NaOAc buffer solution (25 mM, pH 5.05) to give 0.5 mM substrate solution. Add 50 μL cellulase solution to 50 μL substrate solution onto the glass slide which was loaded in FAST® Frame multi-slide plate to have a 2.5 U/mL cellulase solution with 0.25 mM substrate. […] Put the slide in dry box to remove the water, and then use high vacuum to remove trace water. 100 uL water was used to rinse each well of the FAST® Frame multi-slide plate to solve and remove the salt of the buffer solution. Remove any residual water on the plate by high vacuum and then analyzed the slide by MALDI-TOF Ultra-Flex II.
as §4, with “primers.” for “primers. The PCR product encoding Sso7d was digested with NdeI and BamHI and subsequently cloned into expression vector pET-28a (Novagen) to generate pET-28-Sso7d.”

[3] = test system: endoglucanase 44A; assay: Enzymatic hydrolysis in solution with purified endoglucanase 44A, MS-TOF assay; conditions: reaction in solution
Method: as §1, §2, §3, §4

[4] = test system: endoglucanase 44A; assay: Enzymatic hydrolysis on the PTFE-like ACG surface with endoglucanase 44A, MS-TOF assay; conditions: substrate immobilized on the PTFE-like ACG surface
Method: as §2, §5
Cellulase was prepared (5 U/mL in 25 mM pH 5.05 NaOAc buffer solution). Substrate was also dissolved in NaOAc buffer solution (25 mM, pH 5.05) to give 0.5 mM substrate solution. Add 50 μL cellulase solution to 50 μL substrate solution onto the glass slide which was loaded in FAST® Frame multi-slide plate to have a 2.5 U/mL cellulase solution with 0.25 mM substrate. The well of the plate was sealed and the whole assembly was incubated in 37° C. for 18 hours. Put the slide in dry box to remove the water, and then use high vacuum to remove trace water. 100 uL water was used to rinse each well of the FAST® Frame multi-slide plate to solve and remove the salt of the buffer solution. Remove any residual water on the plate by high vacuum and then analyzed the slide by MALDI-TOF Ultra-Flex II.
as §4, with “primers.” for “primers. The PCR product encoding Sso7d was digested with NdeI and BamHI and subsequently cloned into expression vector pET-28a (Novagen) to generate pET-28-Sso7d.”

Compound: O=C(NCCCCCO[C@@H]1O[C@H](CO)[C@@H](O[C@@H]2O[C@H](CO)[C@@H](O[C@@H]3O[C@H](CO)[C@@H](O[C@@H]4O[C@H](CO)[C@@H](O)[C@H](O)[C@H]4O)[C@H](O)[C@H]3O)[C@H](O)[C@H]2O)[C@H](O)[C@H]1O)OCCCC(F)(F)C(F)(F)C(F)(F)C(F)(F)C(F)(F)C(F)(F)C(F)(F)C(F)(F)C(F)(F)F [Compound 10, [(4,4,5,5,6,6,7,7,8,8,9,9,10,10,11,11,12,12,12-nonadecafluorododecoxycarbonyl-amino)pentyl] ß-D-glucopyranosyl-(1→4)-ß-D-glucopyranosyl-(1→4)- -ß-D-glucopyranosyl-(1→4)-13-D-glucopyranoside]
- Cleavage of the substrate by exoglucanase L3 (in words) [1]: quickly
- Cleavage of the substrate by exoglucanase L3 (in words) [2]: cleaved the cellobiose quickly
- Cleavage of the substrate by endoglucanase 44A (in words) [3]: cleaves the trisaccharide or tetrasaccharide unit
- Cleavage of the substrate by endoglucanase 44A (in words) [4]: cleaved cellotetraose quickly
